In patent publication US20160257697A1, “THIOPHENE-SUBSTITUTED TETRACYCLIC COMPOUNDS AND METHODS OFUSE THEREOF FOR THE TREATMENT OF VIRAL DISEASES” (priority 2013, published 2016):
Like-named read-outs stand apart in the source and are kept apart here.

What was measured:
Assay in all cases: microbe, parasite or virus in culture
Assay type in all cases: cell-based, Hepatitis C virus (HCV)
[1] = system: HCV replicon 1AY93H; details: Replicon Assay A
Outline: (§1)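 Replicon cells were seeded at 2000 cells/well with test compound in 0.5% DMSO and 5% FBS, then harvested on day 3. Replicon RNA was measured by multiplex TaqMan real-time RT-PCR, using cyclophilin RNA as the endogenous control and quantified against standard curves of HCV replicon total RNA.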

[2] = system: HCV replicon 1A; details: Replicon Assay A
Outline: as §1

[3] = system: HCV replicon 2B; details: Replicon Assay A
Outline: as §1

[4] = system: HCV replicon 1AQ30D; details: Replicon Assay B
[5] = system: HCV replicon 1B; details: Replicon Assay B
[6] = read-out: 1A Y93H IC50, replicon 1AY93H
[7] = read-out: 1A Q30D IC50, replicon 1AQ30D
[8] = Hepatitis C virus, read-out: 1A Q30D IC50 (nM), replicon 1AQ30D
[9] = read-out: 1A Y93H IC50, HCV replicon 1A Y93H
[10] = Hepatitis C virus, HCV replicon 1A
[11] = read-out: 2B IC50, HCV replicon 2B
[12] = Hepatitis C virus, read-out: 1A Q30D IC50, HCV replicon 1A Q30D
[13] = Hepatitis C virus, HCV replicon 1B

SMILES	IC50 [1, 6]	IC50 ([2]; replicon 1A)	IC50 ([3]; read-out: 2B IC50, replicon 2B)	IC50 [4, 7]	IC50 ([5]; replicon 1B)	IC50 ([5]; Hepatitis C virus, replicon 1B)	IC50 [4, 12]	IC50 [5, 13]	other results
COC(=O)NC(C(=O)N1[C@@H]2C[C@@H]2C[C@H]1c1ncc(-c2ccc3c(c2)cc2n3C(c3ccc(C4CC4)s3)Oc3cc(-c4cnc([C@@H]5CCCN5C(=O)[C@@H](NC(=O)OC)C(C)C)[nH]4)cc(F)c3-2)[nH]1)C1C[C@@H](C)O[C@@H](C)C1 (single isomer, unassigned) [Compound 273]	180 pM	1.5 pM	740 pM	2.06 nM	2 pM				
COC(=O)NC(C(=O)N1CCC[C@H]1c1ncc(-c2ccc3c(c2)cc2n3C(c3ccc(CC4CC4)s3)Oc3cc(-c4cnc([C@@H]5CCCN5C(=O)[C@@H](NC(=O)OC)C(C)C)[nH]4)cc(F)c3-2)[nH]1)C1CCO[C@H](C)C1 (some centres unmarked) [Compound 368]	4.7 pM	2.6 pM	2.8 pM	0.0304 nM	3.1 pM				
COC(=O)N[C@H](C(=O)N1CCC[C@H]1c1ncc(-c2cc(F)c3c(c2)OC(c2ccsc2)n2c-3cc3cc(-c4cnc([C@@H]5CCCN5C(=O)[C@@H](NC(=O)OC)C(C)C)[nH]4)ccc32)[nH]1)C(C)C (single isomer, unassigned) [Compound 317]	110 pM		940 pM			1.6 pM			IC50 ([2]; Hepatitis C virus, replicon 1A): 1.2 pM; IC50 [4, 8]: 2.58 nM
COC(=O)N[C@H](C(=O)N1CCC[C@H]1c1ncc(-c2cc(F)c3c(c2)OC(c2cc4c(s2)CCC4)n2c-3cc3cc(-c4cnc([C@@H]5CCCN5C(=O)[C@@H](NC(=O)OC)C5CCOCC5)[nH]4)ccc32)[nH]1)C(C)C (single isomer, unassigned) [Compound 620]							0.114 nM	1.9 pM	IC50 [1, 9]: 5.9 pM; IC50 [2, 10]: 2.3 pM; IC50 [3, 11]: 10.2 pM
CCc1ccc(C2Oc3cc(-c4cnc([C@@H]5CCCN5C(=O)[C@@H](NC(=O)OC)C(C)C)[nH]4)cc(C)c3-c3cc4cc(-c5cnc([C@@H]6CCCN6C(=O)[C@@H](NC(=O)OC)C6CCOC(C)(C)C6)[nH]5)ccc4n32)s1 (single isomer, unassigned) [Compound 547]							0.96 nM	7 pM	IC50 ([1]; Hepatitis C virus, read-out: 1A Y93H IC50, HCV replicon 1A Y93H): 130 pM; IC50 [2, 10]: 7 pM; IC50 ([3]; Hepatitis C virus, read-out: 2B IC50, HCV replicon 2B): 12 pM
COC(=O)NC(C(=O)N1CCC[C@H]1c1ncc(-c2ccc3c(c2)cc2n3C(c3cc4nccnc4s3)Oc3cc(-c4cnc([C@@H]5CCCN5C(=O)[C@@H](NC(=O)OC)C(C)C)[nH]4)cc(F)c3-2)[nH]1)C1C[C@@H](C)O[C@@H](C)C1 (single isomer, unassigned) [Compound 372]	5.1 pM	2.2 pM	6.4 pM			3.2 pM			IC50 [4, 8]: 0.0964 nM
COC(=O)N[C@H](C(=O)N1CCC[C@H]1c1ncc(-c2cc(F)c3c(c2)OC(c2ccc(C4(C)CC4)s2)n2c-3cc3cc(-c4cnc([C@@H]5CCCN5C(=O)[C@@H](NC(=O)OC)C(C)C)[nH]4)ccc32)[nH]1)C(C)C (single isomer, unassigned) [Compound 836]									IC50 ([1]; HCV replicon 1A Y93H, read-out: 1A Y93H IC50): 16 pM; IC50 ([2]; HCV replicon 1A): 2.1 pM; IC50 ([3]; HCV replicon 2B, read-out: 2B IC50): 60 pM; IC50 ([4]; HCV replicon 1A Q30D, read-out: 1A Q30D IC50): 0.297 nM; IC50 ([5]; HCV replicon 1B): 1.8 pM
CCc1ccc(C2Oc3cc(-c4cnc([C@@H]5CCCN5C(=O)[C@@H](NC(=O)OC)C(C)C)[nH]4)ccc3-c3c(F)c4cc(-c5cnc([C@@H]6CCCN6C(=O)[C@@H](NC(=O)OC)C(C)C)[nH]5)ccc4n32)s1 (single isomer, unassigned) [Compound 602]							0.597 nM	1.7 pM	IC50 [1, 9]: 66 pM; IC50 ([2]; HCV replicon 1A): 1 pM; IC50 [3, 11]: 143 pM
COC(=O)NC(C(=O)N1CCC[C@H]1c1ncc(-c2ccc3c(c2)cc2n3C(c3ccc(C4CC4)s3)Oc3cc(-c4cnc([C@@H]5CCCN5C(=O)[C@@H](NC(=O)OC)C5CCOCC5)[nH]4)cc(F)c3-2)[nH]1)C(C)(C)F (single isomer, unassigned) [Compound 173]	98 pM	1.7 pM	350 pM	0.28 nM	2.1 pM				
CCCc1ccc(C2Oc3cc(-c4cnc([C@@H]5CCCN5C(=O)[C@@H](NC(=O)OC)C(C)C)[nH]4)cc(F)c3-c3cc4cc(-c5cnc([C@@H]6CCCN6C(=O)[C@@H](NC(=O)OC)C6CCOCC6)[nH]5)ccc4n32)s1 (single isomer, unassigned) [Compound 346]	41.4 pM		37.4 pM	0.223 nM		1.3 pM			IC50 ([2]; Hepatitis C virus, replicon 1A): 1 pM
